From patent US20230148214A1, “INDAZOLES AND AZAINDAZOLES AS LRRK2 INHIBITORS” (ESCAPE Bio, Inc., priority 2020, published 2023)

What was measured:
[1] = molecular target: T1, LRRK2 G2019S (Homo sapiens, UniProt Q5S007, G2019S); experiment: LRRK2 Kinase Activity Assay (LanthaScreen TR-FRET), G2019S; format: biochemical; settings: recombinant G2019S-LRRK2, 25 μM ATP, 400 nM LRRKtide, 60 min; class symbols
T1 construct: purchased Life Technologies PV4881
Procedure, shortened: (§1)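 IC50 fitted to the compound-dependent loss of TR-FRET signal. Each kinase form, wild type or G2019S, phosphorylated the fluorescein-tagged ERM-derived LRRKtide in the presence of ATP and compound dilutions over 60 min at room temperature; quench contained 10 mM EDTA and 2 nM anti-pERM antibody (final).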

[2] = molecular target: T2, LRRK2 WT (Homo sapiens, UniProt Q5S007); experiment: LRRK2 Kinase Activity Assay (LanthaScreen TR-FRET), wild type; format: biochemical; settings: recombinant wild type LRRK2, 25 μM ATP, 400 nM LRRKtide, 60 min; class symbols
T2 construct: purchased Life Technologies PR8604B
Procedure, shortened: as §1

T1 sequence (Q5S007 whole entry G2019S): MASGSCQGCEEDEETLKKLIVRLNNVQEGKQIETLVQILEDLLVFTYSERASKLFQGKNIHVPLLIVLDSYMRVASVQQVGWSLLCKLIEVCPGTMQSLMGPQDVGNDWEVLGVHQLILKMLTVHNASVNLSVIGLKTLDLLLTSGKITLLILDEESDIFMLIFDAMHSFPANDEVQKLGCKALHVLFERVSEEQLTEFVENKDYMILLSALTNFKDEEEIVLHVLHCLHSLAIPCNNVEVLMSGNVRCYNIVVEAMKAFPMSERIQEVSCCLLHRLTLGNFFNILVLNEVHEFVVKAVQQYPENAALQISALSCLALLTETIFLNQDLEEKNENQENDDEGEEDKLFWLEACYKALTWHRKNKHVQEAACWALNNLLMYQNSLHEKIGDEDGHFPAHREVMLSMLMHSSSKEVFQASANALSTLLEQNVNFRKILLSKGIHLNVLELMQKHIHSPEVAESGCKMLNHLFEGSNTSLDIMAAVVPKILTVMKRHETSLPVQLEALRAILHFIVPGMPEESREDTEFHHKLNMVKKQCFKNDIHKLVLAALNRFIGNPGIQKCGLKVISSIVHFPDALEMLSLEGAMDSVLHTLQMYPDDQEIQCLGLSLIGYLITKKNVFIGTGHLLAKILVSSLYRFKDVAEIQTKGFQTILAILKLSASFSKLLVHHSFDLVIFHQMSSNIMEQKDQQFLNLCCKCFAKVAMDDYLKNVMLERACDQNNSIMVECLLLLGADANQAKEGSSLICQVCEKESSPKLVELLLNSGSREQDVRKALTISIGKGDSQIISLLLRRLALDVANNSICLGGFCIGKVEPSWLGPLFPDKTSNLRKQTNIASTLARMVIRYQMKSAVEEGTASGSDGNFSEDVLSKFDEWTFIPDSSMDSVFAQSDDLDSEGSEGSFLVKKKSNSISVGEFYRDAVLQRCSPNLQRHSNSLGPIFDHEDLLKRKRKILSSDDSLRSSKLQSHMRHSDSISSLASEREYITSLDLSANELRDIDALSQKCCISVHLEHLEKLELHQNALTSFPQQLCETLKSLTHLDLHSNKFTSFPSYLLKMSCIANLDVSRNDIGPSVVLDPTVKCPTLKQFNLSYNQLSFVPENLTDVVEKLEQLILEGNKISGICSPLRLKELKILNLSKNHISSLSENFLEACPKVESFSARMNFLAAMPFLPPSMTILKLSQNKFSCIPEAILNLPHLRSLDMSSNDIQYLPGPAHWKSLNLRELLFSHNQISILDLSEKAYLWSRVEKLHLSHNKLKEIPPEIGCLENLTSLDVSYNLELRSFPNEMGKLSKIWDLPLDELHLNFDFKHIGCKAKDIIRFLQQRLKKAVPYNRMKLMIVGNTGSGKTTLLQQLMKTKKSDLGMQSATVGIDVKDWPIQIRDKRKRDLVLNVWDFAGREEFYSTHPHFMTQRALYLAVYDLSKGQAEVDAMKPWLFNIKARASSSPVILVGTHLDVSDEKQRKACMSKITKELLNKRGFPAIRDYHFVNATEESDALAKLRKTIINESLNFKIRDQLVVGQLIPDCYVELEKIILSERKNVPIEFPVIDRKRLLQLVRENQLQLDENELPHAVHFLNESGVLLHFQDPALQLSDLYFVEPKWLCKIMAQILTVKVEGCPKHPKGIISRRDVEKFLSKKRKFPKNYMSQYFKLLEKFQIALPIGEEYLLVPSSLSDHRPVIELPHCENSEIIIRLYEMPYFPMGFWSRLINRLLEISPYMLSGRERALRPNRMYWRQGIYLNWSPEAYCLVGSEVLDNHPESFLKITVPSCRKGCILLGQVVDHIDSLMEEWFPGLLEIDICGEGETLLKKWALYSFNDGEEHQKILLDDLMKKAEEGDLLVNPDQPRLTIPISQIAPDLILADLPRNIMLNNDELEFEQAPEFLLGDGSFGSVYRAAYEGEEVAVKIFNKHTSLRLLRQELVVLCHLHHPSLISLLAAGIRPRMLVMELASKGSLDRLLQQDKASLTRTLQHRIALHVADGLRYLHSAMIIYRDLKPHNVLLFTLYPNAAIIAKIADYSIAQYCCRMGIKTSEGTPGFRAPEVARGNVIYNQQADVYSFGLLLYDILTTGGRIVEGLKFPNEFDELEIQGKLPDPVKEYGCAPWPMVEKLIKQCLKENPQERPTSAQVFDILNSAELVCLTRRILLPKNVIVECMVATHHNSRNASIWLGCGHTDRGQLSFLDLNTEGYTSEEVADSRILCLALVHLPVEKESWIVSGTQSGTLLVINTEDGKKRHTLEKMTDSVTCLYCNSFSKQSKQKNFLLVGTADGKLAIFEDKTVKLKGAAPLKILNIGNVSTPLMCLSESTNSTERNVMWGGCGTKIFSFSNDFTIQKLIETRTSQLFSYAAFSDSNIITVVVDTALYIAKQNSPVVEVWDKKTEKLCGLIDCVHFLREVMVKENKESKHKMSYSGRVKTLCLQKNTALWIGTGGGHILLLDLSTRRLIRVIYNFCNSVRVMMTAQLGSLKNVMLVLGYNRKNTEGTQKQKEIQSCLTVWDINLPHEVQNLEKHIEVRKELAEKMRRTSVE
T2 sequence (Q5S007 whole entry): as the sequence (Q5S007 whole entry G2019S) above, with S2019G counted along it

IC50 [1]	IC50 [2]	Structure (SMILES)
< 100 nM	100 to 1000 nM	N#Cc1ccc2c(n1)CCC[C@@H]2Oc1ccc2[nH]nc(I)c2c1 (single isomer, unassigned) [Example 135, enantiomer 1, 5-((3-Iodo-1H-indazol-5-yl)oxy)-5,6,7,8-tetrahydroquinoline-2-carbonitrile]
< 100 nM	100 to 1000 nM	N#Cc1ccc2c(n1)CCC[C@@H]2Oc1ccc2[nH]nc(I)c2c1 (single isomer, unassigned) [Example 135, enantiomer 2, 5-((3-Iodo-1H-indazol-5-yl)oxy)-5,6,7,8-tetrahydroquinoline-2-carbonitrile]
< 100 nM	100 to 1000 nM	N#Cc1cnc2c(c1)CCC[C@@H]2Oc1ccc2[nH]nc(C3CC3)c2c1 (single isomer, unassigned) [Example 136, enantiomer 1, 8-((3-Cyclopropyl-1H-indazol-5-yl)oxy)-5,6,7,8-tetrahydroquinoline-3-carbonitrile]
< 100 nM	< 100 nM	N#Cc1cnc2c(c1)CCC[C@@H]2Oc1ccc2[nH]nc(I)c2c1 (single isomer, unassigned) [Example 137, enantiomer 1, 8-((3-Iodo-1H-indazol-5-yl)oxy)-5,6,7,8-tetrahydroquinoline-3-carbonitrile]
< 100 nM	100 to 1000 nM	N#Cc1cnc2c(c1)CCC[C@@H]2Oc1ccc2[nH]nc(I)c2c1 (single isomer, unassigned) [Example 137, enantiomer 2, 8-((3-Iodo-1H-indazol-5-yl)oxy)-5,6,7,8-tetrahydroquinoline-3-carbonitrile]
< 100 nM	< 100 nM	N#Cc1ccc2c(c1)C(F)(F)C[C@@H]2Nc1ccc2[nH]nc(-c3cnco3)c2c1 (single isomer, unassigned) [Example 138, enantiomer 1, 3,3-Difluoro-1-((3-(oxazol-5-yl)-1H-indazol-5-yl)amino)-2,3-dihydro-1H-indene-5-carbonitrile]
< 100 nM	100 to 1000 nM	N#Cc1ccc2c(c1)C(F)(F)C[C@@H]2Nc1ccc2[nH]nc(-c3cnco3)c2c1 (single isomer, unassigned) [Example 138, enantiomer 2, 3,3-Difluoro-1-((3-(oxazol-5-yl)-1H-indazol-5-yl)amino)-2,3-dihydro-1H-indene-5-carbonitrile]
1000 to 10000 nM	1000 to 10000 nM	N#Cc1ccc2c(c1)CCC[C@@H]2Nc1ccc2[nH]nc(CC3CC3)c2c1 (single isomer, unassigned) [Example 139, enantiomer 1, 5-((3-(Cyclopropylmethyl)-1H-indazol-5-yl)amino)-5,6,7,8-tetrahydronaphthalene-2-carbonitrile]
< 100 nM	1000 to 10000 nM	N#Cc1ccc2c(c1)CCC[C@@H]2Nc1ccc2[nH]nc(CC3CC3)c2c1 (single isomer, unassigned) [Example 139, enantiomer 2, 5-((3-(Cyclopropylmethyl)-1H-indazol-5-yl)amino)-5,6,7,8-tetrahydronaphthalene-2-carbonitrile]
< 100 nM	100 to 1000 nM	N#Cc1ccc2c(c1)C1(CC1)C[C@@H]2Nc1ccc2[nH]nc(-c3cnco3)c2c1 (single isomer, unassigned) [Example 140, enantiomer 1, 3′-((3-(Oxazol-5-yl)-1H-indazol-5-yl)amino)-2′,3′-dihydrospiro[cyclopropane-1,1′-indene]-6′-carbonitrile]
< 100 nM	100 to 1000 nM	N#Cc1ccc2c(c1)C1(CC1)C[C@@H]2Nc1ccc2[nH]nc(-c3cnco3)c2c1 (single isomer, unassigned) [Example 140, enantiomer 2, 3′-((3-(Oxazol-5-yl)-1H-indazol-5-yl)amino)-2′,3′-dihydrospiro[cyclopropane-1,1′-indene]-6′-carbonitrile]
< 100 nM	< 100 nM	N#Cc1cnc2c(c1)CCC[C@@H]2Oc1ccc2[nH]nc(-c3cnn(C(F)F)c3)c2c1 (single isomer, unassigned) [Example 141, enantiomer 1, 8-((3-(1-(Difluoromethyl)-1H-pyrazol-4-yl)-1H-indazol-5-yl)oxy)-5,6,7,8-tetrahydroquinoline-3-carbonitrile]
< 100 nM	100 to 1000 nM	N#Cc1cnc2c(c1)CCC[C@@H]2Nc1ccc2[nH]nc(-c3cncs3)c2c1 (single isomer, unassigned) [Example 142, enantiomer 1, 8-((3-(Thiazol-5-yl)-1H-indazol-5-yl)amino)-5,6,7,8-tetrahydroquinoline-3-carbonitrile]
< 100 nM	100 to 1000 nM	N#Cc1ccc2c(c1Cl)CCC[C@@H]2Nc1ccc2[nH]nc(-c3cnco3)c2c1 (single isomer, unassigned) [Example 143, enantiomer 1, 1-Chloro-5-((3-(oxazol-5-yl)-1H-indazol-5-yl)amino)-5,6,7,8-tetrahydronaphthalene-2-carbonitrile]
100 to 1000 nM	100 to 1000 nM	N#Cc1cnc2c(c1Cl)CCC[C@@H]2Nc1ccc2[nH]nc(-c3cnco3)c2c1 (single isomer, unassigned) [Example 144, enantiomer 1, 4-Chloro-8-((3-(oxazol-5-yl)-1H-indazol-5-yl)amino)-5,6,7,8-tetrahydroquinoline-3-carbonitrile]
< 100 nM	< 100 nM	N#Cc1cnc2c(c1Cl)CCC[C@@H]2Nc1ccc2[nH]nc(-c3cnco3)c2c1 (single isomer, unassigned) [Example 144, enantiomer 2, 4-Chloro-8-((3-(oxazol-5-yl)-1H-indazol-5-yl)amino)-5,6,7,8-tetrahydroquinoline-3-carbonitrile]
< 100 nM	100 to 1000 nM	N#Cc1cnc2c(c1C(F)(F)F)CCC[C@@H]2Nc1ccc2[nH]nc(-c3cnco3)c2c1 (single isomer, unassigned) [Example 145, enantiomer 1, 8-((3-(Oxazol-5-yl)-1H-indazol-5-yl)amino)-4-(trifluoromethyl)-5,6,7,8-tetrahydroquinoline-3-carbonitrile]
< 100 nM	100 to 1000 nM	COc1c(C#N)cnc2c1CCC[C@@H]2Nc1ccc2[nH]nc(-c3cnco3)c2c1 (single isomer, unassigned) [Example 146, enantiomer 1, 4-Methoxy-8-((3-(oxazol-5-yl)-1H-indazol-5-yl)amino)-5,6,7,8-tetrahydroquinoline-3-carbonitrile]
< 100 nM	< 100 nM	N#Cc1cnc2c(c1C(F)F)CCC[C@@H]2Nc1ccc2[nH]nc(-c3cnco3)c2c1 (single isomer, unassigned) [Example 147, enantiomer 1, 4-(Difluoromethyl)-8-((3-(oxazol-5-yl)-1H-indazol-5-yl)amino)-5,6,7,8-tetrahydroquinoline-3-carbonitrile]
< 100 nM	100 to 1000 nM	N#Cc1cnc2c(c1C(F)F)CCC[C@@H]2Nc1ccc2[nH]nc(-c3cnco3)c2c1 (single isomer, unassigned) [Example 147, enantiomer 2, 4-(Difluoromethyl)-8-((3-(oxazol-5-yl)-1H-indazol-5-yl)amino)-5,6,7,8-tetrahydroquinoline-3-carbonitrile]
< 100 nM	< 100 nM	N#Cc1cnc2c(c1)CCC[C@@H]2Nc1ccc2[nH]nc(-c3ccc[nH]3)c2c1 (single isomer, unassigned) [Example 148, enantiomer 1, 8-((3-(1H-Pyrrol-2-yl)-1H-indazol-5-yl)amino)-5,6,7,8-tetrahydroquinoline-3-carbonitrile]
